{"source": "ChEMBL document CHEMBL1159263", "about": "“Cyclic peptides from higher plants, Part 15. Pseudostellarin H, a new cyclic octapeptide from Pseudostellaria heterophylla” (J Nat Prod, 1995)", "target": "T1, Tyrosinase (Homo sapiens) (UniProt P14679)", "T1 sequence (whole entry)": "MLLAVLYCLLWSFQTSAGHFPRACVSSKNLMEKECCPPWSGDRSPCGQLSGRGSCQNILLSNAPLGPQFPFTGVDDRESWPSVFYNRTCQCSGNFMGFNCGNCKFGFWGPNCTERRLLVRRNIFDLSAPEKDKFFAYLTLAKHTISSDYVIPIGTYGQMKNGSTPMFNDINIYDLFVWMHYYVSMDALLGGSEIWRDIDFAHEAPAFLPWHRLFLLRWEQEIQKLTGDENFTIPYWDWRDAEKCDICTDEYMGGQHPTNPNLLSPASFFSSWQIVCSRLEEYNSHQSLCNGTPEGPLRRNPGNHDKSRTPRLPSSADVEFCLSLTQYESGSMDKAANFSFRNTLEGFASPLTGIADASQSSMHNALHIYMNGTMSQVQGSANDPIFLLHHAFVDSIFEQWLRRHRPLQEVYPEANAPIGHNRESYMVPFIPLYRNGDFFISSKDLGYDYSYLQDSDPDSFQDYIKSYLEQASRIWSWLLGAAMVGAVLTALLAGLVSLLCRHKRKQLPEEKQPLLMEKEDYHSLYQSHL", "assay": "Inhibition of tyrosinase at 800 uM by dopachrome method", "note": "Peptide text beside a SMILES is read from it."}
{"smiles": "CC(C)C[C@@H]1NC(=O)[C@@H]2CCCN2C(=O)[C@H]([C@@H](C)O)NC(=O)[C@@H]2CCCN2C(=O)[C@H]([C@@H](C)O)NC(=O)CNC(=O)[C@H](Cc2ccccc2)NC(=O)[C@H](Cc2ccccc2)NC1=O", "note": "(cyclo(FFGTPTPL))", "values": [{"measurement": "inhibition", "result": 15, "unit": "%"}]}
